Measurements reported in PubChem BioAssay AID720632 (Broad Institute, 2013).
Active and inactive are the calls of the source. How the calls were made is not given here.

Biological target: Caspase-6 (Homo sapiens) (UniProt P55212)
Test: human caspase-6 inhibitors, dose response, biochemical, VEID-R110 fluorescence, cherry-pick (AID 720632)
Conditions: caspase-6, VEID-R110 fluorogenic substrate

Sequence of Caspase-6 (Homo sapiens) (P55212 24-179 limits assumed): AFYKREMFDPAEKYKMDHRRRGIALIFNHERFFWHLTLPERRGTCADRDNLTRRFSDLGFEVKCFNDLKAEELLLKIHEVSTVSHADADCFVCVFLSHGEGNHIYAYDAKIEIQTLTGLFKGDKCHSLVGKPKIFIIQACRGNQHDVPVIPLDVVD
Sequence of Caspase-6 (Homo sapiens) (P55212 194-293 limits assumed): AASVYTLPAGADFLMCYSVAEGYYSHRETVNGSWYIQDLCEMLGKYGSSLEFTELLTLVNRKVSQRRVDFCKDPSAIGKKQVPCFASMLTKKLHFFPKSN

| SMILES | activity change, negative = inhibition (at 26 µM (top of the series)) | other results |
| --- | --- | --- |
| COc1ccc2cc(C(c3nnnn3C3CCCC3)N3CCc4ccccc4C3)c(=O)[nH]c2c1 (configuration not stated) | inactive |  |
| CCCCn1nnnc1C(CCSC)N1CCC(n2c(=O)[nH]c3ccccc32)CC1 (configuration not stated) | inactive |  |
| CO[C@@H]1CN(C)C(=O)c2ccc(NC(=O)c3ccccc3)cc2OC[C@H](C)N(C(=O)C2CC2)C[C@@H]1C | inactive |  |
| O=C(CNC(=O)c1ccccc1F)N/N=C/c1ccc2c(c1)OCO2 | inactive |  |
| CCC(=O)Nc1ccc2c(c1)OC[C@@H](C)N(C(=O)CC)C[C@H](C)[C@H](OC)CN(C)C2=O | inactive |  |
| COc1cccc(NS(=O)(=O)c2ccc3c(c2)NC(=O)CC(=O)N3)c1 | inactive |  |
| CC1CC(C)CN(S(=O)(=O)c2ccc(F)c(C(=O)NC3CCCCC3C)c2)C1 (configuration not stated) | inactive |  |
| CO[C@@H]1CN(C)C(=O)c2ccc(NC(=O)C3CC3)cc2OC[C@H](C)N(Cc2cccc(F)c2)C[C@H]1C | inactive |  |
| O=C(NN=C1CCCC1)c1n[nH]c2c1CCC2 | inactive |  |
| N#C[C@@H]1[C@H](c2ccc(C3=CCCCC3)cc2)[C@@H](CO)N1S(=O)(=O)c1ccccc1 |  | activity change, negative = inhibition (at 23.5 µM (top of the series)): inactive |
| CNC(=O)c1ccccc1NC(=O)C1CC(=O)N(C(C)C)C1 (configuration not stated) | inactive |  |
| CCCC(=O)Nc1ccc2c(c1)OC[C@@H](C)N(C(=O)CC)C[C@@H](C)[C@@H](OC)CN(C)C2=O | inactive |  |
| COc1ccc(O)c(C(c2c(C)[nH][nH]c2=O)c2c(C)[nH][nH]c2=O)c1 | inactive |  |
| CCCN1C[C@@H](C)[C@@H](OC)CN(C)C(=O)c2ccc(NC(=O)CC)cc2OC[C@@H]1C | inactive |  |
| O=C(O)c1cccc(S(=O)(=O)NNc2ccccc2C(F)(F)F)c1 | inactive |  |
| O=C(Nc1ccccc1)c1ccccc1OCc1cccc([N+](=O)[O-])c1 | inactive |  |
| COc1ccccc1C(=O)Nc1ccc2c(c1)OC[C@@H](C)N(CC1CC1)C[C@H](C)[C@@H](OC)CN(C)C2=O | inactive |  |
| CC(C)(C)NC(=O)C(=O)NN=C1CCCCCCCCCCC1 | inactive |  |
| Oc1ccc(/C=N/Nc2ccnc3cc(Cl)ccc23)c(O)c1 | inactive |  |
| CCc1ccc(NS(=O)(=O)c2cc(OC)ccc2OC)cc1 | inactive |  |
| O=C(N/N=C/c1ccc[nH]1)c1ccccc1O | inactive |  |

| SMILES | activity change, negative = inhibition (at 26 µM (top of the series)) | other results |
| --- | --- | --- |
| CC(CN1CCCCC1)C(=O)NNC(=O)C12CC3CC(CC(C3)C1)C2 (configuration not stated) | inactive |  |
| CO[C@@H]1CN(C)C(=O)c2ccc(NC(C)=O)cc2OC[C@@H](C)N(C(=O)CC2CC2)C[C@@H]1C | inactive |  |
| O=C(CCCn1c(=S)[nH]c2cc3c(cc2c1=O)OCO3)N1CCN(C2CCCCC2)CC1 | inactive |  |
| CC1(Oc2cnc(Cl)c3ccccc23)CCN(Cc2ccc(OC(F)(F)F)cc2)C1 (configuration not stated) | inactive |  |
| O=C1NC2=C(C(=O)CCC2)C(c2cccc([N+](=O)[O-])c2)N1 (configuration not stated) | inactive |  |
| CCC(=O)Nc1ccc2c(c1)OC[C@@H](C)N(C(=O)COC)C[C@H](C)[C@@H](OC)CN(C)C2=O |  | activity change, negative = inhibition (at 23.5 µM (top of the series)): inactive |
| O=C(NC(=C(Cl)Cl)S(=O)(=O)c1ccc(Cl)cc1)c1ccccc1 | inactive |  |
| O=C(Nc1ccc2c(c1)OCO2)C1Cc2c(-c3ccc4c(c3)OCO4)ccnc2O1 (configuration not stated) | inactive |  |
| O=C1CC(N2CCSCC2)C(=O)N1c1cccc(Cl)c1 (configuration not stated) | inactive |  |
| O=[N+]([O-])c1ccc(S(=O)(=O)N2CCC3(CC2)OCCN3S(=O)(=O)c2cccs2)cc1 | inactive |  |
| O=C1C2C3C=CC(CC3)C2C(=O)N1c1nccs1 (configuration not stated) | inactive |  |
| Cc1cccc(C)c1OCC(=O)NCc1ccccc1 | inactive |  |
| N#CC1C(=O)Nc2cccnc21 (configuration not stated) | inactive |  |
| O=C([C@H]1[C@H](CO)[C@H]2Cn3c(cccc3=O)[C@H]2N1Cc1cc(F)ccc1F)N1CCOCC1 | inactive |  |
| CCCC(=O)Nc1ccc2c(c1)OC[C@@H](C)NC[C@H](C)[C@@H](OC)CN(C)C2=O | inactive |  |
| CCO[C@H]1OC(C(=O)N2CCOCC2)=C[C@@H](c2ccc3c(c2)OCO3)[C@@H]1CCCO | inactive |  |
| CCN(C(=O)COC(=O)CNC(=O)c1ccc2ccccc2c1)C1CCS(=O)(=O)C1 (configuration not stated) | inactive |  |
| Cn1c(SCCOc2ccccc2Cl)nnc1-c1ccncc1 | inactive |  |
| N#CC1=C(N)Oc2cc(N)ccc2C1c1ccccc1 (configuration not stated) | inactive |  |
| COc1ccccc1C(=O)Nc1ccc2c(c1)OC[C@H](C)N(CC1CC1)C[C@H](C)[C@H](OC)CN(C)C2=O | inactive |  |
| O=C([C@@H]1[C@@H](CO)[C@@H]2Cn3c(cccc3=O)[C@@H]2N1Cc1cc(F)ccc1F)N1CCOCC1 | inactive |  |

| SMILES | activity change, negative = inhibition (at 26 µM (top of the series)) | other results |
| --- | --- | --- |
| C[C@H]1CN([C@@H](C)CO)C(=O)CCCn2cc(nn2)CO[C@@H]1CN(C)C(=O)CCC(F)(F)F | inactive |  |
| Clc1cccc(-c2nn3c(Cn4cnc5ccccc54)nnc3s2)c1 | inactive |  |
| CCCC(=O)Nc1ccc2c(c1)OC[C@@H](C)N(C)C[C@@H](C)[C@H](OC)CN(C)C2=O | inactive |  |
| CCS(=O)(=O)c1nc(S(=O)(=O)c2ccc(Cl)cc2)c(N2CCOCC2)s1 | inactive |  |
| Cc1cc(C)cc(N(CC(=O)N2CCCCCC2)S(C)(=O)=O)c1 | inactive |  |
| O=C(CC1C(=O)NCCN1Cc1cccc(F)c1F)NCCCC1CCCC1 (configuration not stated) | inactive |  |
| Fc1cccc(Nc2nc(-c3ccncc3)nc3ccccc23)c1 | inactive |  |
| O=C(NCC1COc2ccccc2O1)c1ccc(F)c(S(=O)(=O)N2CCOCC2)c1 (configuration not stated) | inactive |  |
| CC1CCCCC1NS(=O)(=O)c1ccc(S(=O)(=O)N2CCN(CCC#N)CC2)cc1 (configuration not stated) | inactive |  |
| Cn1c(C(=O)N2CCCC(Nc3ccc(F)cc3)C2)cc2ccccc21 (configuration not stated) | inactive |  |
| COc1ccccc1NS(=O)(=O)c1cc(C(=O)NC2CCN(Cc3ccccc3)CC2)ccc1C | inactive |  |
| COc1ccc(NC(=O)Nc2ccccc2F)c([N+](=O)[O-])c1 | inactive |  |
| C[c-]1[c-](C)[c-](C)[c-](C)[c-]1C.[Fe].c1cc2nccc(N3CCCC3)[c-]2c1 (configuration not stated) |  | AC50: 5.86 µM |
| COc1ccccc1C#Cc1ccc2c(c1)O[C@@H](CN(C)C)[C@@H](C)CN([C@@H](C)CO)S2(=O)=O | inactive |  |
| CCOc1ccc(N2CC(C(=O)NCC(=O)Nc3ccc(F)c(F)c3F)CC2=O)cc1 (configuration not stated) | inactive |  |
| CN(c1ccccc1)S(=O)(=O)c1cccc(C(=O)OCC(=O)Nc2ccc(C(N)=O)cc2)c1 | inactive |  |
| NN1C(=O)/C(=C2/Sc3ccccc3N2CCCS(=O)(=O)O)SC1=S | inactive |  |
| CCC(=O)Nc1ccc2c(c1)OC[C@H](C)N(C(=O)CC)C[C@H](C)[C@H](OC)CN(C)C2=O | inactive |  |
| COc1ccc(S(=O)(=O)Nc2ccc(O)c(Sc3ncn[nH]3)c2)cc1 | inactive |  |
| CC(C)CNC(=O)C1(C)CCCCCN1C(=O)c1cccnc1 (configuration not stated) | inactive |  |
| COc1ccc(/C(C)=N/N2CCCCC2)c(O)c1 | inactive |  |

| SMILES | activity change, negative = inhibition (at 26 µM (top of the series)) | other results |
| --- | --- | --- |
| O=C(c1nc2ccccn2c1CN1CCCC(c2nc3ccccc3o2)C1)N1CCCC1 (configuration not stated) | inactive |  |
| COCC(=O)Nc1ccc2c(c1)OC[C@H](C)N(CC1CC1)C[C@@H](C)[C@@H](OC)CN(C)C2=O | inactive |  |
| COc1cccc(S(=O)(=O)N2C[C@@H]3N[C@H](C2)C3c2ccc(-c3ccccc3C)cc2)c1 (some centres not stated) | inactive |  |
| CCC(=O)Nc1ccc2c(c1)OC[C@@H](C)N(C(=O)CC)C[C@H](C)[C@@H](OC)CN(C)C2=O | inactive |  |
| COc1cc(NC(=O)c2cccnc2)c(Cl)cc1NC(=O)c1ccccc1 | inactive |  |
| Cc1ccc(-c2nc3ccc(Cl)cn3c2Cc2ccsc2)cc1 | inactive |  |
| COc1ccc(C(=O)N2CCN(CCCc3ccccc3)CC2)cc1OC | inactive |  |
| O=C(NCCCO)c1cc([N+](=O)[O-])cc2c1C=Cc1ccccc1O2 | inactive |  |
| COc1ccccc1C(=O)Nc1ccc2c(c1)OC[C@H](C)N(CC1CC1)C[C@@H](C)[C@H](OC)CN(C)C2=O | inactive |  |
| O=C(CCN1C(=O)NC2(CCCC2)C1=O)Nc1cccc(S(=O)(=O)N2CCOCC2)c1 | inactive |  |
| COc1cccc(C(=O)OC(C)C(=O)NCC2CCCCC2)c1 (configuration not stated) | inactive |  |
| COc1ccc(NS(=O)(=O)c2cc(NC(=O)[C@H](C)NC(N)=O)ccc2N2CCCC2)cc1 | inactive |  |
| O=C([C@H]1[C@H](CO)[C@H]2Cn3c(cccc3=O)[C@H]2N1Cc1ccccn1)N1CCC(Cc2ccccc2)CC1 | inactive |  |
| Cc1ccc(C)c(N2CCN(C(=O)CCCn3c(=S)[nH]c4cc5c(cc4c3=O)OCO5)CC2)c1 | inactive |  |
| NCC[C@@H]1CC[C@H](NC(=O)c2ccccc2F)[C@@H](CO)O1 | inactive |  |
| Cc1cc2c(NC(=O)Nc3ccc(C(F)(F)F)cc3)cccc2nn1 | inactive |  |
| COC(=O)[C@@H]1[C@@H](CO)[C@@H]2Cn3c(cccc3=O)[C@@H]2N1CC1CCOCC1 | inactive |  |
| COc1cc(OC)cc(C(=O)NNC(=O)CNC(=O)c2cccs2)c1 | inactive |  |
| CN1CCN(c2ccc(CNC(=O)C3Cc4c(-c5ccc6c(c5)OCO6)ccnc4O3)cc2)CC1 (configuration not stated) | inactive |  |
